Structures are written as SMILES. Activity calls are given as the source filed them.

Assay [1] concerns the target T1, DNA repair and recombination protein RAD54-like (Homo sapiens, UniProt Q92698).
T1 sequence (Q92698 whole entry): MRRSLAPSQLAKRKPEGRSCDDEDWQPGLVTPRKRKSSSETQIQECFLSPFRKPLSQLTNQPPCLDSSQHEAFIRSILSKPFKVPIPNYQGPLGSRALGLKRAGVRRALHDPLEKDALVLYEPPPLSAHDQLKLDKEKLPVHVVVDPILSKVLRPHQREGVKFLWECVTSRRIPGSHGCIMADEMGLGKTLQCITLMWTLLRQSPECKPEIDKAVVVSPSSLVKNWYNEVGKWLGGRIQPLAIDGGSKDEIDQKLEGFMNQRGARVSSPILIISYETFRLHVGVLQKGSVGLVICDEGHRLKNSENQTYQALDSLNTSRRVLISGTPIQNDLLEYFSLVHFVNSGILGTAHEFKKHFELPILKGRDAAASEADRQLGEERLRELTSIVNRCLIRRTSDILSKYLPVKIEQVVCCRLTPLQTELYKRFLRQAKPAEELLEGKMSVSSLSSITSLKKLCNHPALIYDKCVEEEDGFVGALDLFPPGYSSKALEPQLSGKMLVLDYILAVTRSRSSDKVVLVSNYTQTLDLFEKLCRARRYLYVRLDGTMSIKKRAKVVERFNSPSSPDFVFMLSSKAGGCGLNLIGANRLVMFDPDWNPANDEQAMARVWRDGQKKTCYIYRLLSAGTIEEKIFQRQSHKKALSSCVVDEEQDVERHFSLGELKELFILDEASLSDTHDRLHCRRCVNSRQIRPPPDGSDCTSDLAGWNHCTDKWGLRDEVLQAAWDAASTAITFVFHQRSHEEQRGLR
Nature of the assay: RAD54 Holliday junction migration blockers – biochemical, fluorescence, cherry-picked samples, dose series, confirmation (AID 651657). Type of assay: functional.

Assay [2] concerns the target T2, Zinc finger protein mex-5 (Caenorhabditis elegans, UniProt Q9XUB2).
T2 sequence (Q9XUB2 whole entry): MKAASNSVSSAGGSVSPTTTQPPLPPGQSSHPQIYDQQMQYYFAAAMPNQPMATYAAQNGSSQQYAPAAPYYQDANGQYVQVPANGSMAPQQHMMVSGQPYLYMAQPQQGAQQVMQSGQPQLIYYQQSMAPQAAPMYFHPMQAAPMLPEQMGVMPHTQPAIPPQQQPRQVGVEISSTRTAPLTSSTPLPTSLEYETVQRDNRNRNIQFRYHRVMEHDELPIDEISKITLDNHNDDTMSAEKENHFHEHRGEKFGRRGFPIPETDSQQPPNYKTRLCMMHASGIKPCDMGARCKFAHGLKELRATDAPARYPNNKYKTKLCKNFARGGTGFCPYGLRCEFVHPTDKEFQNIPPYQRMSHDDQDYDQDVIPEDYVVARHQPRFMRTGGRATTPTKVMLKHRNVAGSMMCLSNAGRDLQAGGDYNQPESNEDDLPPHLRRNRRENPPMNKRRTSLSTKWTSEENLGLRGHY
Nature of the assay: potency of MEX-5 RNA-binding blockers – biochemical, C. elegans, fluorescence polarization, dose response (AID 1960). (Polarisation of emitted light reports the rotation of a fluorescent probe.)

In assay [3] the target is T3, RNA-binding protein pos-1 (Caenorhabditis elegans, UniProt G5EF15).
T3 sequence (G5EF15 whole entry): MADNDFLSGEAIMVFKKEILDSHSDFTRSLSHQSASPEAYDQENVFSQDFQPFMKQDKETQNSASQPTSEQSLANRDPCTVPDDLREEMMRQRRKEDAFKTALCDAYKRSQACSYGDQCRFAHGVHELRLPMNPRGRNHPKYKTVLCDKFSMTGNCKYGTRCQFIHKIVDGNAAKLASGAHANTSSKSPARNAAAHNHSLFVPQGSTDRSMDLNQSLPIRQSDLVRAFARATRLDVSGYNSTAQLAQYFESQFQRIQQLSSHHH
Nature of the assay: disruptors of C. elegans POS-1 RNA interaction – biochemical, fluorescence polarization, dose response (AID 1964).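 Also: purified POS-1 fused to maltose binding protein made in E. coli; potency of compounds blocking POS-1 binding to fluorescent RNA.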

Assay [4] has as its target Protein Wnt-3a (Mus musculus, UniProt P27467). The experiment in a line: antagonism of Wnt3a pathway luciferase reporter – Wnt-LIGHT cells, luminescence, selectivity assay for Gli-SUFU antagonist project, dose response (AID 651570).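 Also: Wnt-LIGHT reporter cells stimulated with conditioned medium from Wnt3a-producing cells.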 Particulars: read-out: IC50_Mean. Type of assay: functional. A general note: In a reporter assay the amount or activity of a reporter protein is the signal.

A short description of assay [5]: blockers of CRF-binding protein–CRF-R2 complex – cell-based, uHTS hits, 384-well, dose response (AID 651639). Conditions: read-out: IC50_Mean. Type of assay: functional, Homo sapiens.
Assay [6] addresses T4, Corticotropin-releasing factor receptor 2/Corticotropin-releasing factor-binding protein (Homo sapiens, UniProt P24387+Q13324).
T4 sequence (Q13324 whole entry): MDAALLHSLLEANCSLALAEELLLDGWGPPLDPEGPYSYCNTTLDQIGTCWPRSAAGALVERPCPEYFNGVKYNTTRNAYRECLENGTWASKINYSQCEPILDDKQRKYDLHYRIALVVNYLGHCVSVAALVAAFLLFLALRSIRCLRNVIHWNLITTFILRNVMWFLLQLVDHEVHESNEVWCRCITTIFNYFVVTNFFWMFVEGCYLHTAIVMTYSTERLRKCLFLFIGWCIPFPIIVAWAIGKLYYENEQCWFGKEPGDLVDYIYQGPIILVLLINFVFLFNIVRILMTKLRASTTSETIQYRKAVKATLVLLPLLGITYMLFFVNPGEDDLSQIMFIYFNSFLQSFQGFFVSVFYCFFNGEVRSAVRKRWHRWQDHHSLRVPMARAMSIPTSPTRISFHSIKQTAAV
T4 sequence (P24387 whole entry): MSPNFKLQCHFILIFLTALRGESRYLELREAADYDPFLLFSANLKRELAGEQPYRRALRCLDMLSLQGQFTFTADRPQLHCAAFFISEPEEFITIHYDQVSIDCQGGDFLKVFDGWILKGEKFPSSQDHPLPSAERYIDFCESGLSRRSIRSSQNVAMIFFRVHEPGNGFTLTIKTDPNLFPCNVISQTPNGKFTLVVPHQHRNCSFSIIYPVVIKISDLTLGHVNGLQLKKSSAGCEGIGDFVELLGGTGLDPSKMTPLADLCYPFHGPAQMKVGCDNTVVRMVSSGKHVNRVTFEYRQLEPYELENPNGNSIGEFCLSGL
The experiment in a line: activators of CRF receptor 2 with binding protein – uHTS hits, confirmation (AID 602473). Particulars: read-out: EC50_Mean. Type of assay: functional.

Assay [7] has as its target T4, Corticotropin-releasing factor receptor 2/Corticotropin-releasing factor-binding protein. Nature of the assay: Dose Response confirmation of uHTS hits for small molecule antagonists of the CRF-binding protein and CRF-R2 receptor complex. Type of assay: functional. Particulars: read-out: IC50_Mean.
A short description of assay [8]: microbe, parasite or virus in culture. Type of assay: functional. Particulars: Mycobacterium tuberculosis.
The nature of assay [9]: non-specific 3'UTR reporter inhibition in Clone20-Shn3RL – cell-based, Renilla luciferase, cherry-picked, counter-screen for Shn3 inhibitor project, dose response (AID 624133). Type of assay: functional.
The nature of assay [10]: Trypanosoma cruzi growth suppression in host cells – NIH3T3 host cells, beta-gal luminescence, confirmation (AID 2044).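 Also: intracellular parasites grown in NIH/3T3 mouse fibroblasts as host cells; luminescent beta-galactosidase reporter signal from transgenic T. cruzi replicating inside host cells; inhibitors lower the luminescence signal.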 Type of assay: functional, cell-based.
Assay [11] in a line: loss of viability in HepG2 cells – cell-based, CellTiter-Glo, cherry-picked, cytotoxicity control for Shn3 inhibitor project, dose response (AID 624134). Type of assay: functional. In general terms: In ATP-based viability assays light output follows the ATP content of the culture.
Assay [12] can be described thus: reduction of Shn3 3'UTR-driven luciferase in osteoblasts – cell-based, Clone20 osteoblasts, firefly luciferase, cherry-picked, dose response (AID 624132).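 Also: firefly luciferase luminescence from reporter carrying the Shn3 3'UTR in osteoblasts.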 Type of assay: functional.
In assay [13] the target is Glucose-6-phosphate 1-dehydrogenase (Homo sapiens, UniProt P11413). Nature of the assay: inhibition of Homo sapiens G6PD, dose series – biochemical, fluorescence, selectivity assay for P. falciparum G6PD inhibitor project, dose response (AID 504792). Type of assay: functional.
Chain of Glucose-6-phosphate 1-dehydrogenase (P11413 whole entry): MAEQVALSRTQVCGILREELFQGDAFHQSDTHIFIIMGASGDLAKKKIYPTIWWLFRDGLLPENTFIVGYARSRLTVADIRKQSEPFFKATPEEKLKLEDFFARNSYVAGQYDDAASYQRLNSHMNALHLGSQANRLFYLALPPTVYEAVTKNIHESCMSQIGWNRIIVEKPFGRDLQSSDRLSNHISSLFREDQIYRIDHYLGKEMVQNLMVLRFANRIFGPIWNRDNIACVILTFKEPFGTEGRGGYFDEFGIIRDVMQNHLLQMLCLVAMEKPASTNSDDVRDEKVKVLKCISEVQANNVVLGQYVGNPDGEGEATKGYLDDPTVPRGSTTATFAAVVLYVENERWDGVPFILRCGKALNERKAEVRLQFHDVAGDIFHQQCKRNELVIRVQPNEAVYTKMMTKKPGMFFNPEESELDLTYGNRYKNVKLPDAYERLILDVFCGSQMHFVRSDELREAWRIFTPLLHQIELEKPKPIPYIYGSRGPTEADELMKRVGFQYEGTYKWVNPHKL
The target in assay [14] is T5, Endoribonuclease toxin MazF (Escherichia coli K-12, UniProt P0AE70).
T5 sequence (P0AE70 whole entry): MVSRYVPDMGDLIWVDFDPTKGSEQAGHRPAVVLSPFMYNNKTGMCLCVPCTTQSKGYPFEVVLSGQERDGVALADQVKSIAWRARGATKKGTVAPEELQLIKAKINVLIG
The experiment in a line: activation of MazEF endoribonuclease cleavage – biochemical, fluorescence, single-stranded RNA substrate, uHTS hits, dose response (AID 588481). Type of assay: functional.

The target of assay [15] is T5, Endoribonuclease toxin MazF. The experiment in a line: substrate-only fluorescence increase artefacts – biochemical, single-stranded RNase substrate, counter-screen for MazEF activator project, dose response (AID 588502). Type of assay: functional.
Assay [16] addresses DNA dC->dU-editing enzyme APOBEC-3G (Homo sapiens, UniProt Q9HC16). The experiment in a line: inhibition of APOBEC3G ssDNA deamination – biochemical, fluorescence, single-stranded DNA substrate, SAR follow-up (AID 602136). Type of assay: functional. Particulars: read-out: IC50_Mean.
For assay [17], the target named is DNA dC->dU-editing enzyme APOBEC-3A (Homo sapiens, UniProt P31941). The experiment in a line: SAR analysis of small molecule inhibitors of APOBEC3A DNA Deaminase via a fluorescence-based single-stranded DNA deaminase assay. Type of assay: functional. Conditions: read-out: IC50_Mean.
Chain of DNA dC->dU-editing enzyme APOBEC-3A (P31941 whole entry): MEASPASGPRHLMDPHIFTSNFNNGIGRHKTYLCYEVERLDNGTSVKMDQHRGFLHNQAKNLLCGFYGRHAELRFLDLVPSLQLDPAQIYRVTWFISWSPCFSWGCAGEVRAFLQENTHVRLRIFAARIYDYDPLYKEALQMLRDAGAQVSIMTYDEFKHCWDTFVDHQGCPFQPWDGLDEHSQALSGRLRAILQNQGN
Assay [18] can be described thus: intracellular Trypanosoma cruzi inhibitors in host cells – cell-based, plate reader, cherry-pick samples, set 3, dose response (AID 651818).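 Also: compounds incubated with infected cells for about four days.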 Type of assay: functional.

Chain of Protein Wnt-3a (P27467 whole entry): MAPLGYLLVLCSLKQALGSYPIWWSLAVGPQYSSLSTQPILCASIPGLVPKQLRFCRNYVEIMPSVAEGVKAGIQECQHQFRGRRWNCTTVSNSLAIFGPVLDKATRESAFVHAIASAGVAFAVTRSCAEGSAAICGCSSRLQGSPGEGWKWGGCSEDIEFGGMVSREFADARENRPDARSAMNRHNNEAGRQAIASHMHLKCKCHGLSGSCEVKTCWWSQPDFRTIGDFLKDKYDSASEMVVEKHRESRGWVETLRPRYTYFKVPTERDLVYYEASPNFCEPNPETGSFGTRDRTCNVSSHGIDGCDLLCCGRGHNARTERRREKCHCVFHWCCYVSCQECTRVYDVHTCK
Chain of DNA dC->dU-editing enzyme APOBEC-3G (Q9HC16 whole entry): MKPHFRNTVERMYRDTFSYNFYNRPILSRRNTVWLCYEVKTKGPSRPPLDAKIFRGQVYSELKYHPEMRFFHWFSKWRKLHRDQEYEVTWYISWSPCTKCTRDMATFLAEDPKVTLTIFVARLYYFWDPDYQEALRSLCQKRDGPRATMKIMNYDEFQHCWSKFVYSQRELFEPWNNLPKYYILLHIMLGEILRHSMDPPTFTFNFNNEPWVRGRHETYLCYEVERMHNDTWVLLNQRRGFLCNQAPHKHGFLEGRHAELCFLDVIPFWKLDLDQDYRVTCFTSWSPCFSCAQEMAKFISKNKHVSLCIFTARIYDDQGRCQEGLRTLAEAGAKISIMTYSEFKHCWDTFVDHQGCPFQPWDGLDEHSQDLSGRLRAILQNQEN

As for `COc1ccc(CCNC(=O)c2cc3c(=O)n4cccc(C)c4nc3n(CCCN3CCOCC3)c2=N)cc1`, the AC50 in assay [1] was 16.2 µM (active). Further, the figures for the EC50 in assay [2] and in assay [3] were 192 µM (active) and 66.4 µM (active), respectively.

For the compound `FC(F)Oc1ccc(-c2cn3c([n+]2-c2ccccc2)CCCCC3)cc1`, the IC50 in assay [4] is 3.83 µM (active).

Take `COc1ccc(CCNc2nc(N3CCCCC3)nc(N3CCCCC3)n2)cc1OC`: the results for the IC50 in assay [5] and in [7] were > 20 µM (inactive) and 7.8 µM (active), respectively. In addition, the EC50 in assay [6] was > 53 µM (inactive). Also, the CC50 in assay [8] is > 40 µM (active).

Consider `CC(=O)Nc1ccc(S(=O)(=O)N(Cc2ccccc2)C(C)C)cc1`, for which, in assay [4], the IC50 is 22.1 µM (inactive).

As for `Cc1nn(-c2cccc(Cl)c2)c2nc(C(F)(F)F)nc(O)c12`, the IC50 in assay [5] was 17.8 µM (active).

Take `O=C(c1cc2nc(-c3ccc(F)cc3)cc(C(F)(F)F)n2n1)N1CCCCC1c1cccnc1` (stereo unspecified): the values for the AC50 in assay [9], in assay [11] and in assay [12] were 2.12 µM (active), 5.1 µM (active) and 2.37 µM (active), respectively. The EC50 in assay [10] is 0.164 µM (active). For the same compound, the IC50 in assay [4] is 3.57 µM (active). For the same compound, the CC50 in assay [8] was > 40 µM (active).

With `O=c1[nH]nc(CNc2ccc(O)cc2)c2ccccc12`, the IC50 in assay [13] was > 80 µM (inactive). The EC50 in [2] is 15.3 µM (inconclusive); in [14], > 99 µM (inactive); in assay [15], > 99 µM (inactive); in assay [3], 11.8 µM (active).

Regarding `CN1CCN(CCNC(=O)c2cc3c(=O)n(C)c4ccccc4c3n2C)CC1`, the AC50 in [1] was 35.3 µM (active).

As for `CCC(C(=O)Nc1nnc(SCCOC)s1)c1ccccc1` (stereo unspecified), the IC50 in assay [16] and in assay [17] was > 99 µM (inactive) throughout.

With `Cc1ccc(CC(=O)Nc2nnc(-c3ccncc3)s2)cc1`, the IC50 in assay [16] and in [17] was > 99 µM (inactive) in each case.

`CCc1ccc(Nc2nc(Nc3cccc(OC)c3)nc(N3CCOCC3)n2)cc1`: the IC50 in [16] was 47.7 µM (inactive); in assay [17], > 99 µM (inactive).

Take `Cc1ccc(S(=O)(=O)N(C)C[C@H]2Oc3ccc(NS(=O)(=O)c4cccs4)cc3CC(=O)N([C@H](C)CO)C[C@H]2C)cc1`: in [18], the AC50 is 2.05 µM (active).

For `COc1ccc(NC(=O)Nc2cccc3c2O[C@@H](CN(C)Cc2ccc(C(=O)Nc4ccccc4N)cc2)[C@H](C)CN([C@@H](C)CO)C3=O)cc1`, the AC50 in assay [18] was 0.535 µM (active).

As for `COc1ccc(S(=O)(=O)Nc2cccc3c2O[C@H](CN(C)Cc2ccc(C(=O)Nc4ccccc4N)cc2)[C@@H](C)CN([C@H](C)CO)C3=O)cc1`, in assay [18], the AC50 was 4.11 µM (active).

Broadly, the AC50 is the concentration at which the activity in the assay is half-maximal.

For the origin of these results see ChEMBL document CHEMBL1201862, “PubChem BioAssay data set” (2004).
